Reference: PMC10124120 (European journal of medicinal chemistry, 2023)
Each block holds one compound with its values, some of them ahead of it.

Columns and labels:
TMEM16A = test: YFP-based selectivity assay, TMEM16A; format: cell-based; conditions: 10 μM, mean ± S.E.M., n = 6–8
SLC26A3 = biological target: T1, SLC26A3 (Mus musculus, UniProt Q9WVC8); test: Kinetic studies of inhibitor action; format: cell-based, murine; conditions: from kinetics of inhibition onset and washout
T1 sequence (Q9WVC8 1-757): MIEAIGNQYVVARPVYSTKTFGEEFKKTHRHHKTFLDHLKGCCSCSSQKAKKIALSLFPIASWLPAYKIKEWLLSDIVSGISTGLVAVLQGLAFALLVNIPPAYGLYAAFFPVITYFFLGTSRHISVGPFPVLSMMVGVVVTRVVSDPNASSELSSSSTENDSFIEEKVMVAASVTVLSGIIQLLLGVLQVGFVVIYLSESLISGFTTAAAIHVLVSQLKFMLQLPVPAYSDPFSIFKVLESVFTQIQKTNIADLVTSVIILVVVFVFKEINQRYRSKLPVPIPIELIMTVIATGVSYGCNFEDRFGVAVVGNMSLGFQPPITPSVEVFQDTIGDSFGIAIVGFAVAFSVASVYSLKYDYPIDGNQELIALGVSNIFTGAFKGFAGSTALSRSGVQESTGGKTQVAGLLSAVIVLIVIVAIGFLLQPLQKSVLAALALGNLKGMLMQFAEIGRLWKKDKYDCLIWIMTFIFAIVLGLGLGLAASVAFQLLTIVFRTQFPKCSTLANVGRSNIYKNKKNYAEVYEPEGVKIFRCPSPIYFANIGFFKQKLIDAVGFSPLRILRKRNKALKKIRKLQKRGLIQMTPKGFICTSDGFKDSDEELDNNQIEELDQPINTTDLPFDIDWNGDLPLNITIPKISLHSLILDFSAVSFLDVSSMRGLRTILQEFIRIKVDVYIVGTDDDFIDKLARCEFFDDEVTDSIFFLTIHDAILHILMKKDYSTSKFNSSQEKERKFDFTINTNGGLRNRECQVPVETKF

[1] = system: loperamide-induced constipation; conditions: mouse model of constipation produced by loperamide; cited from earlier work
[2] = system: hyperoxaluria and oxalate nephropathy; conditions: mice orally loaded with oxalate; cited from earlier work
[3] = system: absorption of fluid and oxalate from the loop lumen; conditions: closed colonic loops in mice; cited from earlier work
SLC26A4 = biological target: T2, SLC26A4 (Homo sapiens, UniProt O43511); test: YFP-based selectivity assay, SLC26A4; format: cell-based; conditions: for inhibition at 10 µM: read-out: % Inhibition SLC26A4
T2 sequence (O43511 1-780): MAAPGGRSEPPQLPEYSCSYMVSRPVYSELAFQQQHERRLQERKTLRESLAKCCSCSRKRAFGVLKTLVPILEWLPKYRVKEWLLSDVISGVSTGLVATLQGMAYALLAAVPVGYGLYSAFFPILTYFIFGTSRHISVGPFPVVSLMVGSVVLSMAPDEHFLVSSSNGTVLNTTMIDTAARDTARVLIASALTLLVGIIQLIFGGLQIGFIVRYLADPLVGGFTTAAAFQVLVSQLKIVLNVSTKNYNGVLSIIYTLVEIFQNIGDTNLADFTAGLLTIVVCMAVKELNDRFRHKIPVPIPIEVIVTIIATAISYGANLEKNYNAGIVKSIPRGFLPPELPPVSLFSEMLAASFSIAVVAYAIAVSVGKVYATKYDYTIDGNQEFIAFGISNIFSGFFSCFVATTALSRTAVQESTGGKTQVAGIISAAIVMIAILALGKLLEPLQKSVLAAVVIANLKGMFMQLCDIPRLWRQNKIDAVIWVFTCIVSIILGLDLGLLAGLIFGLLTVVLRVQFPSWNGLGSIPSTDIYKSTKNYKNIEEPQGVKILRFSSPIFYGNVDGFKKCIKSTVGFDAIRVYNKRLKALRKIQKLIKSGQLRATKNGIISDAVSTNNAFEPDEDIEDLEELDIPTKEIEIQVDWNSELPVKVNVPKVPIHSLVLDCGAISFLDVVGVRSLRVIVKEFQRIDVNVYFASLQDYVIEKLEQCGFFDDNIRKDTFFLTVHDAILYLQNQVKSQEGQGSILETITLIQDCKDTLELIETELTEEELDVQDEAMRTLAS

[4] = system: loperamide-induced constipation; test: Loperamide-induced model of constipation in mice; format: in vivo, CD1 mice
[5] = loperamide-treated mice (0.3 mg/kg ip), 10 mg/kg oral gavage, vs vehicle
[6] = loperamide 0.3 mg/kg intraperitoneal

Structure (SMILES): Cc1cc(C)cc(N(C)S(=O)(=O)c2nnc(NC(=O)COc3ccc(C)c(C)c3)s2)c1 [Compound 2a]
% Inhibition TMEM16A (TMEM16A): > 80%

site of action (SLC26A3): intracellular
Structure (SMILES): Cc1c(CC(=O)O)c(=O)oc2c(C)c(OCc3cccc(I)c3)ccc12 [DRAinh-A270, [7-(3-iodobenzyloxy)-4,8-dimethylcoumarin]-3-acetic acid]
improving stool output and hydration [1]: effective
preventing hyperoxaluria and oxalate nephropathy [2]: effective
absorption of fluid and oxalate from the loop lumen [3]: inhibited

activity against SLC26A4 (in words) (SLC26A4): active
Structure (SMILES): COC(=O)c1c(C)oc2ccc(OC(=O)COCc3ccccc3)cc12 [Compound 4h]

inhibition at 10 µM (SLC26A4): -13 ± 23%
site of action (SLC26A3): Extracellular
Structure (SMILES): O=c1cc(COc2ccccc2Cl)nc2scc(-c3ccccc3)n12 [Compound 3a, 7-(2-chloro-phenoxymethyl)-3-phenyl-thiazolo [3,2-a]pyrimidin-5-one]
number of pellets [4, 5]: significantly increased
stool weight [4, 5]: significantly increased

inhibition at 10 µM (SLC26A4): -14 ± 19%
Structure (SMILES): O=C(Nc1ccccc1C(=O)O)c1ccc2c(c1)C(=O)N(c1ccc(Cl)cc1)C2=O [Compound 1a]

Structure (SMILES): CN(C)C(=O)C(CCN1CCC(O)(c2ccc(Cl)cc2)CC1)(c1ccccc1)c1ccccc1 [Loperamide, loperamide, reference compound]
reduced pellet number compared to control mice [4, 6]: > 90%
reduced stool weight compared to control mice [4, 6]: > 90%

inhibition at 10 µM (SLC26A4): -13 ± 21%
site of action (SLC26A3): Extracellular
Structure (SMILES): Cc1ccccc1COc1ccc2oc(-c3ccccc3)c(C(=O)O)c2c1 [Compound 4a]
